Data as given in patent publication US10800772B2 (Gilead Sciences, Inc., priority 2016, dated 2020).

Columns and labels:
Type in all cases: cell-based, HIV-1
HIV-IIIb (wildtype) = test: Antiviral assay in MT4 cells, HIV-IIIb wildtype; conditions: Human immunodeficiency virus 1, IIIB, MT4, 120 h, read-out: WT EC50
Description: (§1) Antiviral Assay in MT4 Cells
(§2) For the antiviral assay, 0.4 μL of 189X test concentration of 3-fold serially diluted compound in DMSO was added to 40 μL of cell growth medium (RPMI 1640, 10% FBS, 1% Penicillin-Streptomycin, 1% L-Glutamine, 1% HEPES) in each well of 384-well plate (10 concentrations) in quadruplicate.
(§3) 1 mL Aliquots of MT4 cells were pre-infected for 3 hours at 37° C. with 25 μL of cell growth medium (mock-infected) or a fresh 1:250 dilution of an HIV-IIIb (wildtype, IN T174I BT, or IN T174I DE) concentrated ABI stock (0.004 m.o.i.). IN T174I BT virus was derived from viral breakthrough (BT) assay as described in Mulato, A.; Hansen, D.; Thielen, A.; Porter, D.; Stepan, G.; White, K.; Daeumer, M.; Cihlar, T.; Yant, S. R. AIDS Research and Human Retrovirues, July 2016, ahead of print. doi:10.1089/aid.2016.0071. IN T174I DE virus was derived from serial passaging with dose escalation (DE) of test compound. Infected and uninfected cells were diluted in cell growth media and 35 μL (2000 cells) was added to each well of the assay plates.
(§4) Assay plates were then maintained in a humidified, 5% CO2 incubator at 37° C. After 5 days of incubation, 25 μl of 2× concentrated CellTiter-Glo™ Reagent (catalog # G7573, Promega Biosciences, Inc., Madison, Wis.) was added to each well of the assay plate. Cell lysis was carried out by incubating at room temperature for 10 minutes and then chemiluminescence was read using an Envision plate reader (PerkinElmer). EC50 values were calculated as the compound concentration that caused a 50% […] in luminescence signal, a measure of HIV-1 replication.

HIV-IIIb IN T174I BT = test: Antiviral assay in MT4 cells, HIV-IIIb IN T174I BT virus (from viral breakthrough); conditions: Human immunodeficiency virus 1, IIIB, MT4, 120 h, read-out: T174I BT EC50, MT4 cells, HIV-IIIb IN T174I BT (viral breakthrough), 5 days, CellTiter-Glo
Description: as §1, §2, §3, §4

HIV-IIIb IN T174I DE = test: Antiviral assay in MT4 cells, HIV-IIIb IN T174I DE virus (from dose escalation passaging); conditions: Human immunodeficiency virus 1, IIIB, MT4, 120 h, read-out: T174I DE EC50, MT4 cells, HIV-IIIb IN T174I DE (dose escalation), 5 days, CellTiter-Glo
Description: as §1, §2, §3, §4

Compound	EC50 (HIV-IIIb (wildtype)) [nM]	EC50 (HIV-IIIb IN T174I BT) [nM]	EC50 (HIV-IIIb IN T174I DE) [nM]
CCn1nc(C2CCN(C3COC3)CC2)c2cc(-c3nc4cc(C)c([C@H](OC(C)(C)C)C(=O)O)c(-c5ccc(Cl)cc5)c4s3)ccc21 [Compound 35, (S)-2-(tert-butoxy)-2-(7-(4-chlorophenyl)-2-(1-ethyl-3-(1-(oxetan-3-yl)piperidin-4-yl)-1H-indazol-5-yl)-5-methylbenzo[d]thiazol-6-yl)acetic acid]	4	84	238
CCn1nc2ccc(-c3nc4cc(C)c([C@H](OC(C)(C)C)C(=O)O)c(-c5ccc(Cl)cc5)c4s3)cc2c1C1CCN(C2COC2)CC1 [Compound 36, (S)-2-(tert-butoxy)-2-(7-(4-chlorophenyl)-2-(2-ethyl-3-(1-(oxetan-3-yl)piperidin-4-yl)-2H-indazol-5-yl)-5-methylbenzo[d]thiazol-6-yl)acetic acid]	14	1080	3580
Cc1cc2nc(-c3ccc4c(c3)c(C3CCN(C5COC5)CC3)nn4C3CC3)sc2c(-c2ccc(Cl)cc2)c1[C@H](OC(C)(C)C)C(=O)O [Compound 38, (S)-2-(tert-butoxy)-2-(7-(4-chlorophenyl)-2-(1-cyclopropyl-3-(1-(oxetan-3-yl)piperidin-4-yl)-1H-indazol-5-yl)-5-methylbenzo[d]thiazol-6-yl)acetic acid]	8	293	349
Cc1cc2nc(-c3ccc4c(c3)c(C3CCN(C5COC5)CC3)nn4C(F)F)sc2c(-c2ccc(Cl)cc2)c1[C@H](OC(C)(C)C)C(=O)O [Compound 39, (S)-2-(tert-butoxy)-2-(7-(4-chlorophenyl)-2-(1-(difluoromethyl)-3-(1-(oxetan-3-yl)piperidin-4-yl)-1H-indazol-5-yl)-5-methylbenzo[d]thiazol-6-yl)acetic acid]	13	651	1150
[2H]C([2H])([2H])n1nc(C2CCN(C3COC3)CC2)c2cc(-c3nc4cc(C)c([C@H](OC(C)(C)C)C(=O)O)c(-c5ccc(Cl)cc5)c4s3)ccc21 [Compound 40, (S)-2-(tert-butoxy)-2-(7-(4-chlorophenyl)-5-methyl-2-(1-(methyl-d3)-3-(1-(oxetan-3-yl)piperidin-4-yl)-1H-indazol-5-yl)benzo[d]thiazol-6-yl)acetic acid]	10	257	518
Cc1cc2nc(-c3ccc4c(c3)c(C3CCN(C5COC5)CC3)nn4CC(F)(F)F)sc2c(-c2ccc(Cl)cc2)c1[C@H](OC(C)(C)C)C(=O)O [Compound 41, (S)-2-(tert-butoxy)-2-(7-(4-chlorophenyl)-5-methyl-2-(3-(1-(oxetan-3-yl)piperidin-4-yl)-1-(2,2,2-trifluoroethyl)-1H-indazol-5-yl)benzo[d]thiazol-6-yl)acetic acid]	3830	4980	5310
Cc1cc2nc(-c3ccc4c(c3)c(C3CCN(C5COC5)CC3)nn4CC(F)F)sc2c(-c2ccc(Cl)cc2)c1[C@H](OC(C)(C)C)C(=O)O [Compound 42, (S)-2-(tert-butoxy)-2-(7-(4-chlorophenyl)-2-(1-(2,2-difluoroethyl)-3-(1-(oxetan-3-yl)piperidin-4-yl)-1H-indazol-5-yl)-5-methylbenzo[d]thiazol-6-yl)acetic acid]	5040	5710	5710
CC(=O)N1CC(N2CCC(c3nn(C(F)F)c4ccc(-c5nc6cc(C)c([C@H](OC(C)(C)C)C(=O)O)c(-c7ccc(Cl)cc7)c6s5)cc34)CC2)C1 [Compound 43, (S)-2-(2-(3-(1-(1-acetylazetidin-3-yl)piperidin-4-yl)-1-(difluoromethyl)-1H-indazol-5-yl)-7-(4-chlorophenyl)-5-methylbenzo[d]thiazol-6-yl)-2-(tert-butoxy)acetic acid]	26	313	409
COC(=O)N1CC(N2CCC(c3nn(C(F)F)c4ccc(-c5nc6cc(C)c([C@H](OC(C)(C)C)C(=O)O)c(-c7ccc(Cl)cc7)c6s5)cc34)CC2)C1 [Compound 44, (S)-2-(tert-butoxy)-2-(7-(4-chlorophenyl)-2-(1-(difluoromethyl)-3-(1-(1-(methoxycarbonyl)azetidin-3-yl)piperidin-4-yl)-1H-indazol-5-yl)-5-methylbenzo[d]thiazol-6-yl)acetic acid]	30	600	776
CC(=O)N1CC(N2CCC(c3nn(C4CC4)c4ccc(-c5nc6cc(C)c([C@H](OC(C)(C)C)C(=O)O)c(-c7ccc(Cl)cc7)c6s5)cc34)CC2)C1 [Compound 45, (S)-2-(2-(3-(1-(1-acetylazetidin-3-yl)piperidin-4-yl)-1-cyclopropyl-1H-indazol-5-yl)-7-(4-chlorophenyl)-5-methylbenzo[d]thiazol-6-yl)-2-(tert-butoxy)acetic Acid]	17	174	287
COC(=O)N1CC(N2CCC(c3nn(C4CC4)c4ccc(-c5nc6cc(C)c([C@H](OC(C)(C)C)C(=O)O)c(-c7ccc(Cl)cc7)c6s5)cc34)CC2)C1 [Compound 46, (S)-2-(tert-butoxy)-2-(7-(4-chlorophenyl)-2-(1-cyclopropyl-3-(1-(1-(methoxycarbonyl)azetidin-3-yl)piperidin-4-yl)-1H-indazol-5-yl)-5-methylbenzo[d]thiazol-6-yl)acetic acid]	17	352	716
CCn1nc(C2CCN(C3CN(C(=O)OC)C3)CC2)c2cc(-c3nc4cc(C)c([C@H](OC(C)(C)C)C(=O)O)c(-c5ccc(Cl)cc5)c4s3)ccc21 [Compound 48, (S)-2-(tert-butoxy)-2-(7-(4-chlorophenyl)-2-(1-ethyl-3-(1-(1-(methoxycarbonyl)azetidin-3-yl)piperidin-4-yl)-1H-indazol-5-yl)-5-methylbenzo[d]thiazol-6-yl)acetic acid]	8	70	165
CCn1nc(C2CCN([C@H]3CCN(C(=O)OC)C3)CC2)c2cc(-c3nc4cc(C)c([C@H](OC(C)(C)C)C(=O)O)c(-c5ccc(Cl)cc5)c4s3)ccc21 [Compound 49, (S)-2-(tert-butoxy)-2-(7-(4-chlorophenyl)-2-(1-ethyl-3-(1-((S)-1-(methoxycarbonyl)pyrrolidin-3-yl)piperidin-4-yl)-1H-indazol-5-yl)-5-methylbenzo[d]thiazol-6-yl)acetic acid]	4	79	286
CCn1nc(C2CCN([C@@H]3CCN(C(=O)OC)C3)CC2)c2cc(-c3nc4cc(C)c([C@H](OC(C)(C)C)C(=O)O)c(-c5ccc(Cl)cc5)c4s3)ccc21 [Compound 50, (S)-2-(tert-butoxy)-2-(7-(4-chlorophenyl)-2-(1-ethyl-3-(1-((R)-1-(methoxycarbonyl)pyrrolidin-3-yl)piperidin-4-yl)-1H-indazol-5-yl)-5-methylbenzo[d]thiazol-6-yl)acetic Acid]	4	74	276
Cc1cc2nc(-c3ccc4c(c3)c(C3=CCOC3)nn4C)sc2c(-c2ccc(Cl)cc2)c1[C@H](OC(C)(C)C)C(=O)O [Compound 51, (S)-2-(tert-butoxy)-2-(7-(4-chlorophenyl)-2-(3-(2,5-dihydrofuran-3-yl)-1-methyl-1H-indazol-5-yl)-5-methylbenzo[d]thiazol-6-yl)acetic acid]	15	2720	3590
Cc1cc2nc(-c3ccc4c(c3)c(C3CN(C(=O)OC(C)(C)C)C3)nn4C)sc2c(-c2ccc(Cl)cc2)c1[C@H](OC(C)(C)C)C(=O)O [Compound 53, (S)-2-(tert-butoxy)-2-(2-(3-(1-(tert-butoxycarbonyl)azetidin-3-yl)-1-methyl-1H-indazol-5-yl)-7-(4-chlorophenyl)-5-methylbenzo[d]thiazol-6-yl)acetic acid]	45	8910	57000
Cc1cc2nc(-c3ccc4c(c3)c(C3CN(C(C)C)C3)nn4C)sc2c(-c2ccc(Cl)cc2)c1[C@H](OC(C)(C)C)C(=O)O [Compound 54, (S)-2-(tert-butoxy)-2-(7-(4-chlorophenyl)-2-(3-(1-isopropylazetidin-3-yl)-1-methyl-1H-indazol-5-yl)-5-methylbenzo[d]thiazol-6-yl)acetic acid]	6	1830	3290
